From publication PMC12631873 (Advanced Science, 2025)
Square brackets hold non-standard residues; d marks the D form. Peptide text beside a SMILES is read from it. * marks the point of attachment. X1 = CN1/C(=C/C=C/C=C/C2=[N+](CCCCCC(=O)*)c3ccc(S(=O)(=O)[O-])cc3C2(C)C)C(C)(C)c2cc(S(=O)(=O)O)ccc21; Hyp = O=C(O)[C@@H]1C[C@@H](O)CN1; Nlys = NCCCCNCC(=O)O; Ahx = NCCCCCC(=O)O

Tests used:
[1] = Serum stability test (HPLC); type: in vitro ADME, mouse; conditions: 37 °C; for HPLC chromatogram after 48 h of serum incubation: 25% mouse serum, 48 h vs 10 min; for HPLC chromatogram after 48 h of serum incubation / HPLC peak shape and elution time after 24 h of serum incubation: HPLC 646 nm; for HPLC chromatogram after 48 h of serum incubation / metabolised at 24 h / degradation in serum (in words): n = 3; for metabolised at 24 h: 25% v/v mouse serum in 1× PBS, 10 nmol probe, peak area normalized to 10 min, read-out: percent of the peptides proteolyzed after 24 h of serum incubation; for metabolised at 24 h / degradation in serum (in words): HPLC UV 646 nm; for degradation in serum (in words): 25% v/v mouse serum, 24 h and even after 48 h; for HPLC peak shape and elution time after 24 h of serum incubation: mouse serum
Experimental: Cy5‐labeled peptidomimetic probes (10 nmol) were incubated in 25% v/v mouse serum (Biosharp, BL1053A diluted in 1× PBS) at 37 °C. Aliquots (200 µL) were taken periodically at 0 (deadtime: ≈10 min), 2, 24, and 48 h, and added to 400 µL of 3.75% trichloroacetic acid in acetonitrile at 4 °C. Then, all samples were centrifuged to remove the precipitated serum proteins at 13800 g for 10 min at 4 °C. The supernatant (150 µL) was taken to mix with 550 µL of water (with 0.1% TFA) to centrifuge again at 2630 g for 5 min at 4 °C. Five microliter of the supernatant was mixed with 200 µL of water containing 0.1% TFA as the final samples for HPLC analysis at room temperature monitored by absorbance at 646 nm with the integral area of the intact fraction recorded. The peak area for the 10 min time point was designated as 100% intact, and each peak area at successive time points was normalized to the 10 min peak to calculate the percent compound remaining. All the experiments were repeated three times.

[2] = Organ fluorescence 2 h post-injection (clearance route); type: in vivo, mouse; conditions: nude mice, organs isolated 2 h post i.v. injection of 1 nmol
Experimental: (§1) Typically, the fluorescence peptides or peptoids were prepared at a dose of 1 nmol (10 µM in 100 µL of 1× PBS buffer) and injected into the tail vein of each mouse 2 h prior to fluorescence imaging with an IVIS Spectrum imager (PerkinElmer Lumina III). For Figure 4, Figures S17 and S18 (Supporting Information) (joint aging and RA) and Figure S27 (Supporting Information), 2 nmol of Cy5‐(NlysO)7 (20 µM in 100 µL of 1× PBS buffer) were i.v. administered to each mouse. For 1‐week‐old neonatal mice, 1 nmol of Cy5‐(NlysO)7 (20 µM in 50 µL of 1× PBS buffer) was intravenously injected into each mouse. All in vivo imaging was performed 2 h post probe injection with the IVIS Spectrum imager (PerkinElmer, fluorescence: ex/em: 620/670 nm, exposure: 1 s, bing: 4, F/Stop: 2; field of view: A/B/C/Z). Mice were anesthesia with 3% isoflurane (RWD, R510‐22‐10) during image acquisition. Hair in the knee areas was removed before fluorescence imaging for mice in Figure 4a and Figure S17 (Supporting Information). The mice were euthanized following the final image acquisition and occasionally imaged again after skin and organ removal. Next, the airways, ankles, ears, paws, knees, tails, spines, and chest ribs were collected, imaged, and saved for subsequent histology analysis. All acquired fluorescence images were analyzed using the Living Image software (PerkinElmer). The fluorescence signal from each specimen was measured by quantifying the average radiation efficiency within the selected oval‐shaped regions‐of‐interest.

[3] = Routine (whole) blood tests after repeated dosing; type: in vivo, mouse; conditions: C57BL/6J mice, 3 weekly i.v. doses of 2 nmol over 14 days, n = 5
Experimental: Whole blood tests: Each C57BL/6J mouse (6–8 weeks old) was intravenously injected with 100 µL of PBS buffer or with each peptide or peptoid probe (2 nmol in 100 µL 1× PBS buffer per mouse) on days 0, 7, and 14. The mice were sacrificed on day 15, 24 h after the final injection. The heart, liver, spleen, lungs, and kidneys were collected from each mouse and processed into formalin‐fixed paraffin‐embedded sections for histological evaluation with H&E staining. Whole blood was collected. Both H&E and blood sample analyses were performed by Wuhan Servicebio.

cartilage = test: In vivo and ex vivo fluorescence imaging of cartilage uptake and retention in nude mice; design: species or system mouse; conditions: 1 nmol i.v., 0-96 h
Description: All procedures for mouse maintenance and experiments strictly followed the policy of the Experimental Animal Ethics Committee of the Fifth Affiliated Hospital of Sun Yat‐sen University (protocol numbers: 00361, 00436). Balb/c nu mice (male, 10‐18 weeks old) were used for the general in vivo imaging experiments (Figure 3c–f; Figures S10–S14, Supporting Information). For Figure 3g,h and Figure S16 (Supporting Information), neonatal Balb/c mice (7 days old) were used. Female Balb/c mice (74 weeks old versus 12 weeks old) were used in the aged joint imaging experiment reported in Figure 4a–c and Figure S17 (Supporting Information). The RA model was made using female Balb/c mice (6‐8 weeks old) by intraperitoneal injection of an anti‐collagen antibody cocktail (1.5 mg per mouse; Chondrex, 53100) followed by selective subcutaneous injection of lipopolysaccharide (LPS, 12.5 µg per mouse, Chondrex, 53100) into the left hind paw three days later.^[ [30] ^] C57BL/6J mice (male, 6–8 weeks old) were used for the biocompatibility tests (Figures S23–S25, Supporting Information).
as §1
For the cartilage retention experiments (Figures S11 and S12, Supporting Information), Cy5‐(NlysO)7 (10 µM in 100 µL of 1× PBS buffer) was administered via tail vein to four male Balb/c nu mice (10 weeks old) at 2, 24, 48, and 96 h respectively, prior to fluorescence imaging using an IVIS Spectrum imaging system (ex/em: 620/670 nm, exposure: 1 s, bing: 4, F/Stop: 2). Following euthanasia, their cartilaginous tissues were harvested and imaged. The fluorescence images were analyzed and quantified as described above.

[4] = 25% v/v mouse serum (Biosharp, BL1053A diluted in 1× PBS); conditions: 37 °C, up to 48 h

Compound	clearance route from organ fluorescence [2]	routine blood analyses vs PBS control group [3]	HPLC peak shape and elution time after 24 h of serum incubation [1]	in vivo retention in joints and ribs compared to peptide sequences Cy5-(GKO)7 and Cy5-R8 (cartilage)	serum stability (degradation in mouse serum) [4]	other results
CN1/C(=C/C=C/C=C/C2=[N+](CCCCCC(=O)NCCCCCC(=O)NCC(=O)N[C@@H](CCCCN)C(=O)N3C[C@H](O)C[C@H]3C(=O)NCC(=O)N[C@@H](CCCCN)C(=O)N3C[C@H](O)C[C@H]3C(=O)NCC(=O)N[C@@H](CCCCN)C(=O)N3C[C@H](O)C[C@H]3C(=O)NCC(=O)N[C@@H](CCCCN)C(=O)N3C[C@H](O)C[C@H]3C(=O)NCC(=O)N[C@@H](CCCCN)C(=O)N3C[C@H](O)C[C@H]3C(=O)NCC(=O)N[C@@H](CCCCN)C(=O)N3C[C@H](O)C[C@H]3C(=O)NCC(=O)N[C@@H](CCCCN)C(=O)N3C[C@H](O)C[C@H]3C(N)=O)c3ccc(S(=O)(=O)[O-])cc3C2(C)C)C(C)(C)c2cc(S(=O)(=O)O)ccc21 [Cy5‐(GKO)7] ({X1-Ahx}-GK[Hyp]GK[Hyp]GK[Hyp]GK[Hyp]GK[Hyp]GK[Hyp]GK[Hyp]-NH2)	might be mainly cleared through kidneys					HPLC chromatogram after 48 h of serum incubation [1]: showed prominent peaks from peptide proteolysis; metabolised at 24 h [1]: ~25%
CN1/C(=C/C=C/C=C/C2=[N+](CCCCCC(=O)NCCCCCC(=O)NCC(=O)N(CCCCN)CC(=O)NCC(=O)N(CCCCN)CC(=O)NCC(=O)N(CCCCN)CC(=O)NCC(=O)N(CCCCN)CC(=O)NCC(=O)N(CCCCN)CC(=O)NCC(=O)N(CCCCN)CC(=O)NCC(=O)N(CCCCN)CC(N)=O)c3ccc(S(=O)(=O)[O-])cc3C2(C)C)C(C)(C)c2cc(S(=O)(=O)O)ccc21 [Cy5‐(GNlys)7] ({X1-Ahx}-G[Nlys]G[Nlys]G[Nlys]G[Nlys]G[Nlys]G[Nlys]G[Nlys]-NH2)	may be cleared by the ki dneys and liver	None of the measurements	No significant changes in peak shape and elusion time were noted	stronger retention in the joints and ribs in vivo		degradation in serum (in words) [1]: hardly degraded
CN1/C(=C/C=C/C=C/C2=[N+](CCCCCC(=O)NCCCCCC(=O)NCC(=O)N3C[C@H](O)C[C@H]3C(=O)NCC(=O)N3C[C@H](O)C[C@H]3C(=O)NCC(=O)N3C[C@H](O)C[C@H]3C(=O)NCC(=O)N3C[C@H](O)C[C@H]3C(=O)NCC(=O)N3C[C@H](O)C[C@H]3C(=O)NCC(=O)N3C[C@H](O)C[C@H]3C(=O)NCC(=O)N3C[C@H](O)C[C@H]3C(N)=O)c3ccc(S(=O)(=O)[O-])cc3C2(C)C)C(C)(C)c2cc(S(=O)(=O)O)ccc21 [Cy5‐(GO)7] ({X1-Ahx}-G[Hyp]G[Hyp]G[Hyp]G[Hyp]G[Hyp]G[Hyp]G[Hyp]-NH2)						HPLC chromatogram after 48 h of serum incubation [1]: showed prominent peaks from peptide proteolysis; metabolised at 24 h [1]: ~25%
Cy5‐(GNlys)7					hardly degraded in the serum even after 48 h	
Cy5‐(GNlysO)7					hardly degraded in the serum even after 48 h	
Cy5‐(NlysO)7					hardly degraded in the serum even after 48 h	
Cy5‐Nlys7					No significant changes in peak shape and elution time even post 48 h	

Continued, in another order:

clearance route from organ fluorescence [2]	routine blood analyses vs PBS control group [3]	Compound	HPLC peak shape and elution time after 24 h of serum incubation [1]	in vivo retention in joints and ribs compared to peptide sequences Cy5-(GKO)7 and Cy5-R8 (cartilage)	serum stability (degradation in mouse serum) [4]	other results
might be mainly cleared through kidneys	None of the measurements	CN1/C(=C/C=C/C=C/C2=[N+](CCCCCC(=O)NCCCCCC(=O)NCC(=O)N(CCCCN)CC(=O)N3C[C@H](O)C[C@H]3C(=O)NCC(=O)N(CCCCN)CC(=O)N3C[C@H](O)C[C@H]3C(=O)NCC(=O)N(CCCCN)CC(=O)N3C[C@H](O)C[C@H]3C(=O)NCC(=O)N(CCCCN)CC(=O)N3C[C@H](O)C[C@H]3C(=O)NCC(=O)N(CCCCN)CC(=O)N3C[C@H](O)C[C@H]3C(=O)NCC(=O)N(CCCCN)CC(=O)N3C[C@H](O)C[C@H]3C(=O)NCC(=O)N(CCCCN)CC(=O)N3C[C@H](O)C[C@H]3C(N)=O)c3ccc(S(=O)(=O)[O-])cc3C2(C)C)C(C)(C)c2cc(S(=O)(=O)O)ccc21 [Cy5‐(GNlysO)7] ({X1-Ahx}-G[Nlys][Hyp]G[Nlys][Hyp]G[Nlys][Hyp]G[Nlys][Hyp]G[Nlys][Hyp]G[Nlys][Hyp]G[Nlys][Hyp]-NH2)	No significant changes in peak shape and elusion time were noted	stronger retention in the joints and ribs in vivo		degradation in serum (in words) [1]: hardly degraded
may be cleared by the ki dneys and liver	None of the measurements	CN1/C(=C/C=C/C=C/C2=[N+](CCCCCC(=O)NCCCCCC(=O)N(CCCCN)CC(=O)N(CCCCN)CC(=O)N(CCCCN)CC(=O)N(CCCCN)CC(=O)N(CCCCN)CC(=O)N(CCCCN)CC(=O)N(CCCCN)CC(N)=O)c3ccc(S(=O)(=O)[O-])cc3C2(C)C)C(C)(C)c2cc(S(=O)(=O)O)ccc21 [Cy5‐Nlys7] ({X1-Ahx}-[Nlys][Nlys][Nlys][Nlys][Nlys][Nlys][Nlys]-NH2)	No significant changes in peak shape and elusion time were noted	stronger retention in the joints and ribs in vivo		
